Patent publication US20020037844A1, “SYNTHETIC PEPTIDE FOR TREATMENT OF AUTOIMMUNE ARTHRITIS” (priority 1993, published 2002)
“Also recorded” adds a separate entry of the source.

Columns and labels:
[1] = tested on: collagen induced arthritis in neonatally tolerized mice; test: Neonatal tolerance: peptide given at birth, CII challenge at eight weeks, arthritis observed; assay type: in vivo; conditions: administered to neonatal mice prior to immunization with CII
Excerpt: To measure the incidence of arthritis in immunized mice, individuals examined and scored each of the forepaws and hind paws on a scale of 0-4 as described in Wooley, P. H., H. W. Luthra, J. M. Stuart and C. S. David. 1981. “Type 11 Collagen-induced Arthritis in Mice”. I. Major Histocompatibility Complex (I region) Linkage and Antibody Correlates. J. Exp. Med. 154:688. This article is incorporated herein by reference. There were two separate examiners, one of whom was unaware of the identity of the treatment groups. Each mouse was scored three times a week beginning three weeks post immunization and continuing through 8 weeks post immunization. The incidence of arthritis (number of animals with one or more arthritic limbs) was reported at 6 weeks post immunization, the time point at which the control group reached its peak of disease. The incidence of arthritis in various groups of mice was compared using Fisher's Exact Test. Student's T test was used to compare means of antibody responses to CII.
The foregoing data support the hypothesis that analog peptide CII 245-270[s260, 261, 263] competes for binding to I-A^q. […] Synthetic peptides were solubilized directly in phosphate buffered saline (PBS) at a concentration of 1 mg/ml. […]

[2] = target: T1, I-A^q on the surface of antigen presenting cells (Mus musculus, UniProt P04227+P06342); test: Competitive antigen presentation assay: pulsed APC presented to CII 245-270 specific T-cell hybridomas, IL-2 titer; assay type: cell-based, DBA/1 mice; conditions: for Binding to I-A^q / competition for presentation of the wild type peptide to T-cell hybridomas: conclusion from Table II
T1 construct: containing 4×10^5 syngenic spleen cells and 10^5 T-hybridoma cells; from tissue; host or cells: spleen cells syngeneic to DBA/1 mice (H-2q), used as antigen presenting cells
Method: Lymph node cells were obtained from DBA/1 mice immunized with α1(II)-CB11 emulsified with complete Freund's adjuvant and cultured in vitro with α1(II)-CB11 for five days, and in the presence of IL-2 for three days before fusion. Hybridoma cells reactive to CB11 [CII 245-270] and CII were cloned by limiting dilution to 0.3 cells/well. Antigen presentation experiments were performed in 96 well […] plates in a total volume of 0.3 ml containing 4×10^5 syngenic spleen cells and 10^5 T-hybridoma cells. For competitive inhibition assays, spleen cells were pulsed with various ratios of inhibitor to indicator peptide and washed several times prior to addition to the antigen presentation culture. Cell cultures were maintained at 37° C. in 5% humidified CO2 for 20 to 24 hours, after which seven 80 μl two-fold serial dilutions were made for determination of IL-2 titers. Four thousand HT-2 cells were added to each supernatant dilution, and after 16 to 20 hours HT-2 cell viability was evaluated by visual inspection. IL-2 titers were determined by the reciprocal of the highest two-fold serial dilution maintaining 90% viability of the HT-2 cells. Results are presented as units of IL-2 per ml of undiluted supernatant as described by Kapper et al. Kappler, J., J. White, D. Wegman, E. Mustain, and P. Marrack, 1982, Antigen Presentation by Ia^+B Cell Hybridomas to H-2 Restricted T Cell Hybridomas. Proc. Natl. Acad. Sci. USA 79:3604. The disclosure of this article is incorporated by reference.
The inability of some analog peptides to stimulate T cells likely occurs either because of disruption of peptide binding to the I-A^q molecule or the inability of the T cell receptor to recognize the peptide. In order to determine whether the analog peptides could bind to the class II molecule, competitive antigen presentation assays were performed. Antigen presenting cells (APC) were pulsed with various molar ratios of CII 245-270 and an analog peptide, and tested for their ability to stimulate CII 245-270 specific T cell hybridomas.

CII-primed T cells = test: T cell stimulation assay, γ-IFN production by CII-primed spleen and lymph node cells; assay type: cell-based, mice; conditions: CII-primed T cells cultured with 100 μm of antigen; FIG. 1
Method: Nowarck H., E. Hahn, R. Timple, 1976, “Requirements for T Cells in the Antibody Response of Mice to Calf Skin Collagen,” J. Immunol. 30:29. Each peptide was cultured with pooled spleen and lymph node cells from CII-immunized mice, and culture supernatant fluids were tested for the presence of γ-interferon as an indicator of T cell stimulation. T cell hybridomas were established by polyethylene glycol-induced fusion of lymph node cells with the T cell receptor α^−/β^−thymoma line, BW5147. White, M., M. Blackman, J. Bill, J. Kappler, P. Marrack, D. P. Gold, and W. Born, 1989, Two Better Cell Lines for Making Hybridomas Expressing Specific T Cell Receptors. J. Immunol. 143:1822. […]
(§1) T cell stimulation assays were performed in 96 well plates and the degree of stimulation was quantitated by measurements of γ-IFN production. […] Supernatants were collected from 72 to 120 hours later and either […] analyzed for γ-IFN production immediately or stored at −70° C. prior to analysis. Quantitative measurement of murine gamma interferon was done using a solid-phase enzyme-linked immunosorbent assay (Amgen Biologicals, Thousand Oaks, Calif.). […] The absorbance was measured at 405 nm with a spectrophotometer, and a standard curve was obtained by plotting the absorbance versus the corresponding concentration of the standards. Units of γ-interferon were calculated based on NIH standard number Gg02-901-533. […]

antibodies to CII = test: Serum antibodies to CII by ELISA in neonatally treated mice; assay type: in vivo; conditions: 100 μg antigen in IFA intraperitoneally within 24 hours of birth; serum four weeks after immunization; mean titer
Method: (§2) Mice were bled at four weeks after immunization and the serum was tested for antibodies reactive with type II collagen by enzyme-linked immunoassay (ELISA) described in Stuart, J. M., A. S. Townes, and A. H. Kang. 1982. Nature and Specificity of the Immune Response to Collagen in Type II Collagen-Induced Arthritis in Mice, J. Clin. Invest. 69:673. The disclosure of this article is incorporated by reference An anti-CII serum standard was used in each assay. A standard curve was derived by computer analysis using a 4 parameter logistic curve. Results are reported as units of activity, derived by comparison of test sera with the curve derived from the anti-CII standard which was arbitrarily defined as having 50 units of activity. Sera from mice were tested individually, and means were calculated for each experimental group.
The foregoing data support the hypothesis that analog peptide CII 245-270[s260, 261, 263] competes for binding to I-A^q. […] Synthetic peptides were solubilized directly in phosphate buffered saline (PBS) at a concentration of 1 mg/ml. Neonatal mice were tolerized using a protocol described by Gammon et al.^21 in which antigen emulsified with incomplete Freund's adjuvant was injected intraperitoneally. Gammon, Dunn, Shastri, Oki, Wilbur, Sercarz, 1986, Neonatal T Cell Tolerance to Minimal Immunogenic Peptides is Caused by Clonal Inactivation, Nature (Lond) 319:413. […]

[3] = tested on: collagen induced arthritis (CIA) in DBA/1 mice; test: Collagen induced arthritis, simultaneous immunization with CII and peptide; assay type: in vivo; conditions: for Development / incidence of arthritis, in words: co-injected with native CII, molar ratio CII:peptide 1:480
[4] = tested on: antibodies reactive with type II collagen; test: Serum antibodies to CII by ELISA in co-immunized mice; assay type: in vivo, DBA/1 mice; conditions: for Antibodies to CII: serum four weeks after immunization, mean
Method: as §2
In order to assess the effects of co-immunizing mice with both CII 245-270[s260, 261, 263] and CII, the mean antibody titers to native CII were measured for each immunization group in Table III, four weeks after immunization (Table IV).

CII-primed, bulk T cells = test: Inhibition of antigen presentation to CII-primed bulk T cells (co-culture); assay type: cell-based, DBA/1 mice; conditions: analog co-cultured with CII 245-270 or native CII at various ratios; FIG. 2
Method: as §1, with “production. Myers, L. K., K. Terato, J. M. Seyer, J. M. Stuart, and A. H. Kang, 1992, Characterization of a Tolerogenic T Cell Epitope of Type II Collagen and its Relevance to Collagen-Induced Arthritis. J. Immunol. 149:1439. The disclosure of this article is incorporated by reference. Spleens and lymph nodes from mice immunized with CII 14 to 21 days prior were individually minced into single cell suspensions in Hank's Balanced Salt Solution (BSS) and washed 3 times.” for “production.”

[5] = tested on: collagen induced arthritis in neonatally tolerized mice; conditions: Myers et al. 1989, J. Exp. Med. 170:1999; cited from earlier work

For “Pro - Thr - Gly - Pro - Leu - Gly - Pro - Lys - Gly - Gln - Thr - Gly - Glx - Leu - Gly - Ala - 4Hyp - Gly - Asn - Lys - Gly - Glx - Gln - Gly - Pro - Lys [CII 245-270 [s260, 261, 263], analog of CII 245-270 with alanine at 260, hydroxyproline at 261, asparagine at 263]”, the “Effectiveness as neonatal tolerogen, in words” value ([1]; 261, 263]) was “ineffective as a CII tolergen; also recorded: very poor tolerogen”, the IL-2 ([2]; T-cell hybrid 2qCII92.33, molar ratio competitor:CII 245-270 1.6:1) was 160 U/ml and the IL-2 ([2]; T-cell hybrid 2qCII92.33, molar ratio competitor:CII 245-270 3.2:1) was 80 U/ml. The IL-2 ([2]; T-cell hybrid 2qCII92.33, molar ratio competitor:CII 245-270 6.5:1) was 20 U/ml, the IL-2 ([2]; T-cell hybrid 2qCII92.33, molar ratio competitor:CII 245-270 13:1) was “— (A “—” indicates less than 20 U/ml of IL-2 detected)” and the IL-2 ([2]; T-cell hybrid qCII85.33, molar ratio competitor:CII 245-270 1.6:1) was 640 U/ml. For the same substance, the IL-2 ([2]; T-cell hybrid qCII85.33, molar ratio competitor:CII 245-270 3.2:1) was 320 U/ml, the IL-2 ([2]; T-cell hybrid qCII85.33, molar ratio competitor:CII 245-270 6.5:1) was 40 U/ml and the IL-2 ([2]; T-cell hybrid qCII85.33, molar ratio competitor:CII 245-270 13:1) was “—* (A “—” indicates less than 20 U/ml of IL-2 detected)”. It also gave an IL-2 ([2]; T-cell hybrid qCII98.10, molar ratio competitor:CII 245-270 1.6:1) of 160 U/ml, an IL-2 ([2]; T-cell hybrid qCII98.10, molar ratio competitor:CII 245-270 3.2:1) of 80 U/ml and an IL-2 ([2]; T-cell hybrid qCII98.10, molar ratio competitor:CII 245-270 6.5:1) of 40 U/ml. The IL-2 ([2]; T-cell hybrid qCII98.10, molar ratio competitor:CII 245-270 13:1) was “— (A “—” indicates less than 20 U/ml of IL-2 detected)”, the “Ability of competitively pulsed APC to stimulate the T-cell hybridomas” value ([2]; analog:CII 245-270 molar ratios of 6:1 or greater) was “greatly reduced” and the “Binding to I-A^q / competition for presentation of the wild type peptide to T-cell hybridomas” value [2] was “capable of binding to I-A^q”. For the same substance, the “T cell stimulation (γ-interferon) compared to the wild type peptide CII 245-270” value (CII-primed T cells) was “did not respond”, the “Antibodies to CII” value (antibodies to CII) was 55.6 ± 19 and the “Incidence of arthritis and number of arthritic limbs, in words” value ([3]; co-immunized with CII at various molar ratios) was “dose-dependent decrease”. For the same substance, the “Development / incidence of arthritis, in words” value [3] was “arthritis did not develop”, the “Immune responses to CII in vivo as well as in vitro, in words” value ([4]; co-immunization with CII) was “significantly down regulated” and the “Antibodies to CII” value ([4]; molar ratio CII:peptide 1:160) was 53 ± 25 units of activity. The “Antibodies to CII” value ([4]; molar ratio CII:peptide 1:320) was 34 ± 22 units of activity, the “Antibodies to CII” value ([4]; molar ratio CII:peptide 1:480) was 17 ± 3 units of activity and the “T cell responses to CII 245-270 and CII” value (CII-primed, bulk T cells) was “significantly decreased responses to both CII 245-270 and CII in a dose dependent manner”.

For “CII 245-270 [s266, 267, 269]: analog of CII 245-270 with D at 266, T at 267, A at 269 (type I collagen based substitutions) (PTGPLGPKGQTGELGIAGFKGDTGAK)”, the “Binding to I-A^q / competition for presentation of the wild type peptide to T-cell hybridomas” value [2] was “did not compete”, the “T cell stimulation (γ-interferon) compared to the wild type peptide CII 245-270” value (CII-primed T cells) was “did not respond” and the “T cell responses to CII 245-270 and CII” value (CII-primed, bulk T cells) was “no significant effect”.

For “Pro - Thr - Gly - Pro - Leu - Gly - Pro - Lys - Gly - Gin - Thr - Gly - Glx - Leu - Gly - Ile - Ala - Gly - Phe - Lys - Gly - Glx - Gln - Gly - Pro - Lys [CII 245-270, reference compound]”, the “Effectiveness as neonatal tolerogen, in words” value [1] is listed as “effective tolerogen”, the “Suppression of arthritis as neonatal tolerogen” value [5] is listed as “suppresses arthritis” and the “Antibodies to CII” value (antibodies to CII) is listed as 18.5 ± 8. For the same substance, the “Development / incidence of arthritis, in words” value [3] was “did not alter the incidence of disease” and the “Antibodies to CII” value ([4]; molar ratio CII:peptide 1:480) was 54 ± 25 units of activity.
